Like-named read-outs stand apart in the source and are kept apart here.

For this experiment, the system named is human pancreatic cancer cells (SW1990). Description: CCK8 cytotoxicity / proliferation assay, SW1990. The following applies: read-out: IC50 SW1990.

Experimental: The SW1990, HT1080, and A375-S2 human tumor cell lines were obtained from ATCC (Manassas, VA, USA). […] SW1990, HT1080, and LO2 cells were cultured in DMEM medium with 10% fetal bovine serum (FBS). All of these cells were cultured at 37°C in a humidified atmosphere with 5% CO2. To estimate cell viability, cells (5000/well) were separately seeded in 96-well plates for 24 h at 37°C in a 5% CO2 incubator. […] All the experiments were performed in triplicate, and the mean absorbance values were calculated. The IC50 values of the compounds were derived from the mean OD values of the triplicate tests versus the drug concentration curves.
Cell proliferation was assessed by incubating them with Cell Counting Kit-8 reagents (Dojindo, Shanghai, China) for 24 h, 48 h, 72 h, 96 h at 37°C and measuring the absorbance at 450 nm. The experiment was performed in triplicate.

Turning to `O=C(Cc1cccc(OC(F)(F)F)c1)Nc1ccc(CCCCc2nnc(NC(=O)Cc3ccccn3)s2)nn1` [CB-839, reference compound], the IC50 (as a rule, the midpoint of a concentration-inhibition curve) (Homo sapiens, SW1990, 48 h) was 13.1 ± 0.57 µM. Consider `O=C(Cc1ccccc1)Nc1nnc(CCSCCc2nnc(NC(=O)Cc3ccccc3)s2)s1` [BPTES, reference compound], for which the IC50 (CCK8, 48 h) was found to be 35.3 ± 0.67 µM.

The values above are taken from article PMC5768343, “A natural inhibitor of kidney-type glutaminase: a withanolide from Physalis pubescens with potent anti-tumor activity” (Oncotarget, 2017).
